From article PMC8536644, “Enigmatic mechanism of the N-vinylpyrrolidone hepatocarcinogenicity in the rat” (Archives of Toxicology, 2021)

How the values were obtained:
rat hepatocytes = test system: rat hepatocytes; parameters: method as in MAK [1994]; conditions: ref MAK [1994]; cited from earlier work
rat liver cells = assay: Trypan Blue viability of the single cell suspension, liver; format: in vivo; conditions: liver, 5 days, individual animals
Procedure: (§1) The organ parts (see above) were washed in mincing buffer (50 mM EDTA in HBSS [without Ca^2+ and Mg^2+] pH 7.5: DMSO 9:1 (v/v), the latter added shortly before use, stored at 4 °C), cut into 1 to 2-mm pieces in ice-cold mincing buffer and transferred to a cell sieve with 70-µm pores. The viability of the cell suspension was evaluated by the Trypan Blue Assay (Strober [2001]).

[1] = as above; format: in vivo, rat; conditions: rat, inhaled
Procedure: as §1

[2] = Trypan Blue viability of the single cell suspension, lung; format: in vivo, rat; conditions: rat, inhaled
Procedure: as §1

C=CN1CCCC1=O [NVP, N-vinylpyrrolidone]
Unscheduled DNA Synthesis (UDS) test result (rat hepatocytes): negative | Individual viability (%) (rat liver cells; female, no FPG, 10 ppm inhalation): 94% | Individual viability (%) (rat liver cells; male, Comet with FPG (Table 8), 10 ppm inhalation): 93% | Individual viability (%) (rat liver cells; male, no FPG, 5 ppm inhalation): 90% | Individual viability (%) (rat liver cells; male, no FPG, 10 ppm inhalation): 94% | viability at 5 days ([1]; both sexes, Wistar Crl:WI (Han), liver and lung single cell suspensions, either of the two organs (liver, lung) after NVP treatment, read-out: Viability (dye exclusion test)): > 90% | viability at 5 days ([1]; both sexes, Wistar Crl:WI (Han), liver single cell suspension, liver cells, NVP-exposed, read-out: Viability, range of the individual animals): 90 to 99% | viability at 5 days ([1]; female, Wistar, liver, 5 ppm, liver, female, Comet with FPG (Table 9), 5 ppm inhalation, 5 days, individual animals, read-out: Individual viability (%)): 99% | viability at 5 days ([1]; female, Wistar, liver, 5 ppm, liver, female, Comet with FPG (Table 9), 5 ppm inhalation, 5 days, read-out: Viability (%) (mean ± SD)): 99 ± 1% | viability at 5 days ([1]; female, Wistar, liver, 5 ppm, liver, female, no FPG, 5 ppm inhalation, 5 days, individual animals, read-out: Individual viability (%)): 98% | viability at 5 days ([1]; female, Wistar, liver, 5 ppm, liver, female, no FPG, 5 ppm inhalation, 5 days, read-out: Viability (%) (mean ± SD)): 97 ± 1% | viability at 5 days ([1]; female, Wistar, liver, 10 ppm, liver, female, Comet with FPG (Table 9), 10 ppm inhalation, 5 days, individual animals, read-out: Individual viability (%)): 98% | viability at 5 days ([1]; female, Wistar, liver, 10 ppm, liver, female, Comet with FPG (Table 9), 10 ppm inhalation, 5 days, read-out: Viability (%) (mean ± SD)): 98 ± 1% | viability at 5 days ([1]; female, Wistar, liver, 10 ppm, liver, female, no FPG, 10 ppm inhalation, 5 days, individual animals, read-out: Individual viability (%)): 96% | viability at 5 days ([1]; female, Wistar, liver, 10 ppm, liver, female, no FPG, 10 ppm inhalation, 5 days, read-out: Viability (%) (mean ± SD)): 96 ± 1% | viability at 5 days ([1]; female, Wistar, liver, 20 ppm, liver, female, Comet with FPG (Table 9), 20 ppm inhalation, 5 days, individual animals, read-out: Individual viability (%)): 98% | viability at 5 days ([1]; female, Wistar, liver, 20 ppm, liver, female, Comet with FPG (Table 9), 20 ppm inhalation, 5 days, read-out: Viability (%) (mean ± SD)): 98 ± 1% | viability at 5 days ([1]; female, Wistar, liver, 20 ppm, liver, female, no FPG, 20 ppm inhalation, 5 days, individual animals, read-out: Individual viability (%)): 96% | viability at 5 days ([1]; female, Wistar, liver, 20 ppm, liver, female, no FPG, 20 ppm inhalation, 5 days, read-out: Viability (%) (mean ± SD)): 97 ± 1% | viability at 5 days ([1]; male, Wistar, liver, 5 ppm, liver, male, Comet with FPG (Table 8), 5 ppm inhalation, 5 days, individual animals, read-out: Individual viability (%)): 97% | viability at 5 days ([1]; male, Wistar, liver, 5 ppm, liver, male, Comet with FPG (Table 8), 5 ppm inhalation, 5 days, read-out: Viability (%) (mean ± SD)): 98 ± 1% | viability at 5 days ([1]; male, Wistar, liver, 5 ppm, liver, male, no FPG, 5 ppm inhalation, 5 days, individual animals, read-out: Individual viability (%)): 92% | viability at 5 days ([1]; male, Wistar, liver, 5 ppm, liver, male, no FPG, 5 ppm inhalation, 5 days, read-out: Viability (%) (mean ± SD)): 95 ± 3% | viability at 5 days ([1]; male, Wistar, liver, 10 ppm, liver, male, Comet with FPG (Table 8), 10 ppm inhalation, 5 days, individual animals, read-out: Individual viability (%)): 99% | viability at 5 days ([1]; male, Wistar, liver, 10 ppm, liver, male, Comet with FPG (Table 8), 10 ppm inhalation, 5 days, read-out: Viability (%) (mean ± SD)): 98 ± 2% | viability at 5 days ([1]; male, Wistar, liver, 10 ppm, liver, male, no FPG, 10 ppm inhalation, 5 days, individual animals, read-out: Individual viability (%)): 96% | viability at 5 days ([1]; male, Wistar, liver, 10 ppm, liver, male, no FPG, 10 ppm inhalation, 5 days, read-out: Viability (%) (mean ± SD)): 96 ± 1% | viability at 5 days ([1]; male, Wistar, liver, 20 ppm, liver, male, Comet with FPG (Table 8), 20 ppm inhalation, 5 days, individual animals, read-out: Individual viability (%)): 100% | viability at 5 days ([1]; male, Wistar, liver, 20 ppm, liver, male, Comet with FPG (Table 8), 20 ppm inhalation, 5 days, read-out: Viability (%) (mean ± SD)): 99 ± 1% | viability at 5 days ([1]; male, Wistar, liver, 20 ppm, liver, male, no FPG, 20 ppm inhalation, 5 days, individual animals, read-out: Individual viability (%)): 98% | viability at 5 days ([1]; male, Wistar, liver, 20 ppm, liver, male, no FPG, 20 ppm inhalation, 5 days, read-out: Viability (%) (mean ± SD)): 97 ± 1% | viability at 5 days ([2]; both sexes, Wistar Crl:WI (Han), lung single cell suspension, lung cells, NVP-exposed, read-out: Viability, range of the individual animals): 93 to 100% | viability at 5 days ([2]; female, Wistar, lung, 5 ppm, lung, female, Comet with FPG (Table 11), 5 ppm inhalation, 5 days, individual animals, read-out: Individual viability (%)): 99% | viability at 5 days ([2]; female, Wistar, lung, 5 ppm, lung, female, Comet with FPG (Table 11), 5 ppm inhalation, 5 days, read-out: Viability (%) (mean ± SD)): 99 ± 1% | viability at 5 days ([2]; female, Wistar, lung, 5 ppm, lung, female, no FPG, 5 ppm inhalation, 5 days, individual animals, read-out: Individual viability (%)): 99% | viability at 5 days ([2]; female, Wistar, lung, 5 ppm, lung, female, no FPG, 5 ppm inhalation, 5 days, read-out: Viability (%) (mean ± SD)): 99 ± 1% | viability at 5 days ([2]; female, Wistar, lung, 10 ppm, lung, female, Comet with FPG (Table 11), 10 ppm inhalation, 5 days, individual animals, read-out: Individual viability (%)): 98% | viability at 5 days ([2]; female, Wistar, lung, 10 ppm, lung, female, Comet with FPG (Table 11), 10 ppm inhalation, 5 days, read-out: Viability (%) (mean ± SD)): 98 ± 1%
